From patent publication US20230053540A1, “TREATMENT OF LIVER INJURY” (Massachusetts Institute of Technology, priority 2019, published 2023)

System: mouse liver
Assay: APAP acute liver injury in mice, histology/IHC (TUNEL, PCNA)
Assay type: in vivo
Details: 300 mg/kg APAP i.p.
Protocol: Mice were then used for isolation of primary hepatic cells for single cell RNA-sequencing or tissue harvest for further downstream analysis.
A portion of liver tissue was fixed in 10% neutral buffered formalin for 48 hrs and further processed to obtain paraffin blocks and 5 μm thick sections. A portion of liver tissue was frozen in optimal cutting temperature (OCT) medium and used to obtain 10 μm fresh frozen sections.
Histology was performed by the histology core at Beth Israel Deaconess Medical Center using standard procedures and automated workflow. Samples were processed and embedded following fixation in 10% neutral buffered formalin for 48 hrs. Samples were embedded in paraffin and sectioned at […]. Immunohistochemistry was performed on a Leica autostainer (Leica Biosystems) with enzyme treatment (1:1000) using standard protocols. The antibody used for assessment of cell proliferation was PCNA (Cell Signaling, Cat. 13110, 1:800), and cell death was ApopTag Peroxidase In Situ Apoptosis Detection Kit (Millipore, Cat. #S7100). Macrophages were stained using the anti-F4/80 (Cell Signaling, Cat. 70076, 1:500). Sections were then counterstained with hematoxylin, dehydrated, and film cover slipped. Four representative images were captured per slide. TUNEL-positive area, PCNA-positive cells, and F4/80-positive cells were measured and averaged across the four images for each sample using Fiji.

CC(=O)Nc1ccc(O)cc1 [APAP, acetaminophen]
histological analysis of liver (6 hrs post-APAP (A6)): pericentral necrosis | histology of liver (24 hrs post-APAP (A24)): persistent pericentral necrosis | total cell loss (liver cell mass) after APAP exposure (PH ~70%): ~10%
